# Values of other authors in patent US20230381309A1, “METHODS OF TREATING DIFFUSE LARGE B-CELL LYMPHOMA” (IMMUNOVACCINE TECHNOLOGIES INC., priority 2020, published 2023).
# Like-named read-outs stand apart in the source and are kept apart here.
# System: relapsed/refractory DLBCL
substance,measurement,setting,value
nivolumab: PD1 antibody (Opdivo; Bristol-Myers Squibb),objective response rate,patients having failed autologous transplantation,10%
same,objective response rate,patients ineligible for autologous transplantation,3%
